From patent US20260356856A1, “KRAS G12S AND G12C INHIBITORS” (MIRATI THERAPEUTICS, INC., priority 2023, published 2026)

Tests used:
[1] = target: T1, KRas-mediated phosphorylation of ERK in A549 cells (Homo sapiens, UniProt P01116, G12S); assay: Inhibition of KRas-mediated phosphorylation of ERK (HTRF), A549 cells; assay type: cell-based; conditions: HTRF pERK, 3 h incubation
T1 construct: pERK HTRF read-out

KRas G12C = target: T2, KRas G12C (Homo sapiens, UniProt P01116, G12C); assay: KRas binding assay, TR-FRET displacement of Cy5 labelled tracer; conditions: 60-minute incubation at room temperature, 1% DMSO, pH 7.5
T2 construct: Biotinylated KRas (corresponding to amino acids 1-169, produced at Accelegan Inc.); biotin (biotinylated); purchased Accelegan Inc
How it was run: (§1)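 TR-FRET tracer-displacement readout after 60 min at room temperature, using KRas residues 1-169 (biotinylated) with terbium streptavidin and a Cy5 tracer. Buffer: 50 mM HEPES pH 7.5, 5 mM MgCl2, 0.005% Tween-20, 1 mM DTT, 1% DMSO final. IC50 from 4-parameter fit of POC data.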

KRas WT = target: T3, KRas WT (Homo sapiens, UniProt P01116); assay: as above; conditions: 60-minute incubation at room temperature, 1% DMSO, pH 7.5
T3 construct: Biotinylated KRas (corresponding to amino acids 1-169, produced at Accelegan Inc.); biotin (biotinylated); purchased Accelegan Inc
How it was run: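 Displacement measured on KRas residues 1-169 (biotinylated, terbium-streptavidin labelled); 1 h, RT; 1% DMSO final; HEPES pH 7.5 / MgCl2 / Tween-20 / DTT. IC50: 4-parameter fit.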

KRas G12S = target: T4, KRas G12S (Homo sapiens, UniProt P01116, G12S); assay: as above; conditions: 60-minute incubation at room temperature, 1% DMSO, pH 7.5
T4 construct: Biotinylated KRas (corresponding to amino acids 1-169, produced at Accelegan Inc.); biotin (biotinylated); purchased Accelegan Inc
How it was run: as §1

[2] = target: T5, KRas-mediated phosphorylation of ERK in MKN1 cells (Homo sapiens, UniProt P01116); assay: Inhibition of KRas-mediated phosphorylation of ERK (HTRF), MKN1 cells; assay type: cell-based; conditions: MKN1 cells (KRas WT); HTRF pERK; 3 h incubation
T5 construct: pERK HTRF read-out
Experimental: Inhibition of KRas Phosphorylation of ERK (HTRF) by Exemplary Compounds of Formula (Ia) or (Ib)
Cisbio HTRF Advanced pERK Assay Catalog #64AERPEH • Cells: MKN1, PSN1 • Procedure: • 1. Day 1: Seed 6,000 cells/well −25 μl/well in 384-well white solid bottom plate; RPM1_10% FBS. Incubate overnight at 37 °C/5% CO2. • 2.

[3] = target: T6, KRas-mediated phosphorylation of ERK in H358 cells (Homo sapiens, UniProt P01116, G12C); assay: Inhibition of KRas-mediated phosphorylation of ERK (HTRF), H358 cells; assay type: cell-based; conditions: HTRF pERK, 3 h incubation
T6 construct: pERK HTRF read-out
T6 sequence (P01116 1-188 isoform P01116-2 G12C): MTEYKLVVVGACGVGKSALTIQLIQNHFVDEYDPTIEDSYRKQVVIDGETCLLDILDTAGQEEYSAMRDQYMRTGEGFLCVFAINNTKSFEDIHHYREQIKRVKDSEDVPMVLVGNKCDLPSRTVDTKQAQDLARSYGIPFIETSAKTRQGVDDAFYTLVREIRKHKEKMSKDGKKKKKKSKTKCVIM

T2 sequence (P01116 1-169 isoform P01116-2 G12C): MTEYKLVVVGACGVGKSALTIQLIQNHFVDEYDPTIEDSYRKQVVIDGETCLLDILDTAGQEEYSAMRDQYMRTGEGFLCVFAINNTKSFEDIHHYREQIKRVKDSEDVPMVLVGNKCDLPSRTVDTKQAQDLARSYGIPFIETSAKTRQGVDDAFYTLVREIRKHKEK
T4 sequence (P01116 1-169 isoform P01116-2 G12S): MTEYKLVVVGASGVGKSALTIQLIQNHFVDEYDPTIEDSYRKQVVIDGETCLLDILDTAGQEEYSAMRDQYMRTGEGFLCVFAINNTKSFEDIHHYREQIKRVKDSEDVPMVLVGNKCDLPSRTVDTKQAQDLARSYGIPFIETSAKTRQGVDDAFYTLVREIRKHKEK
T5 sequence (P01116 1-188 isoform P01116-2): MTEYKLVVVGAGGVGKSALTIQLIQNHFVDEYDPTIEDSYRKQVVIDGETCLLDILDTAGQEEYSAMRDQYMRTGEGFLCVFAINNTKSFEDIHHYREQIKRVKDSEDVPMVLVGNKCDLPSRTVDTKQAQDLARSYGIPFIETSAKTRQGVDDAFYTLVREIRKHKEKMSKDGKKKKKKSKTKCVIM
T1 sequence (P01116 1-188 isoform P01116-2 G12S): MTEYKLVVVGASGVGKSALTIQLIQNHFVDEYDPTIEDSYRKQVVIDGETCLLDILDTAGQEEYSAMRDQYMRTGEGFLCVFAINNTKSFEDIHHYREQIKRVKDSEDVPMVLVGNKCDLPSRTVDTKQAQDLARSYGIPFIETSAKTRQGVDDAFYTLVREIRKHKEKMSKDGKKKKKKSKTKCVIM
T3 sequence (P01116 1-169 isoform P01116-2): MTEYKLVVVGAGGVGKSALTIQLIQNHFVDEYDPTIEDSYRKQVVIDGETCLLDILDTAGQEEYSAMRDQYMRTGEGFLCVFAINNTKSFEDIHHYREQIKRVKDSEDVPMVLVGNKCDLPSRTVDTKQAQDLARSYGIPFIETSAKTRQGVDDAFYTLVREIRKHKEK

CCc1c(F)ccc2cc(O)cc(-c3ncc4c(N5C[C@H]6C[C@H](C(=O)n7ccc(C)n7)[C@H]6C5)nc(OC[C@@]56CCCN5C[C@H](F)C6)nc4c3F)c12 [Example 161, ((1S,5S,6S)-3-(7-(8-ethyl-7-fluoro-3-hydroxynaphthalen-1-yl)-8-fluoro-2-(((2R,7aS)-2-fluorotetrahydro-1H-pyrrolizin-7a(5H)-yl)methoxy)pyrido[4,3-d]pyrimidin-4-yl)-3-azabicyclo[3.2.0]heptan-6-yl)(3-methyl-1H-pyrazol-1-yl)methanone]
IC50 [1]: 717 nM | IC50 (KRas G12C): 86 nM | IC50 (KRas WT): 282 nM | IC50 (KRas G12S): 185 nM | IC50 [2]: 7280 nM | IC50 [3]: > 10000 nM

CC(=O)N(C)C(=O)[C@@H]1C[C@H]1CNc1nc(OC[C@@]23CCCN2C[C@H](F)C3)nc2c(F)c(-c3ccc(F)c4sc(N)c(C#N)c34)c(Cl)cc12 [Example 238, trans-N-acetyl-2-(((7-(2-amino-3-cyano-7-fluorobenzo[b]thiophen-4-yl)-6-chloro-8-fluoro-2-(((2R,7aS)-2-fluorotetrahydro-1H-pyrrolizin-7a(5H)-yl)methoxy)quinazolin-4-yl)amino)methyl)-N-methylcyclopropane-1-carboxamide]
IC50 [1]: 145 nM | IC50 (KRas G12C): 11 nM | IC50 (KRas WT): 10 nM | IC50 (KRas G12S): 14 nM | IC50 [2]: 40 nM | IC50 [3]: 84 nM

CCc1c(F)ccc2cc(O)cc(-c3ncc4c(N5CCC(C(=O)n6cc(OC)cn6)CC5)nc(OC[C@@]56CCCN5C[C@H](F)C6)nc4c3F)c12 [Example 294, (1-(7-(8-ethyl-7-fluoro-3-hydroxynaphthalen-1-yl)-8-fluoro-2-(((2R,7aS)-2-fluorotetrahydro-1H-pyrrolizin-7a(5H)-yl)methoxy)pyrido[4,3-d]pyrimidin-4-yl)piperidin-4-yl)(4-methoxy-1H-pyrazol-1-yl)methanone]
IC50 [1]: 74 nM | IC50 (KRas G12C): 61 nM | IC50 (KRas WT): 130 nM | IC50 (KRas G12S): 22 nM | IC50 [2]: 3870 nM | IC50 [3]: 4490 nM

CCc1c(F)ccc2cc(O)cc(-c3ncc4c(N5CC[C@@H]6[C@H](C5)[C@@H]6C(=O)n5ccc(C)n5)nc(OC[C@@]56CCCN5C[C@H](F)C6)nc4c3F)c12 [Example 157, ((1S,6R,7R)-3-(7-(8-ethyl-7-fluoro-3-hydroxynaphthalen-1-yl)-8-fluoro-2-(((2R,7aS)-2-fluorotetrahydro-1H-pyrrolizin-7a(5H)-yl)methoxy)pyrido[4,3-d]pyrimidin-4-yl)-3-azabicyclo[4.1.0]heptan-7-yl)(3-methyl-1H-pyrazol-1-yl)methanone]
IC50 [1]: 7590 nM | IC50 (KRas G12C): 84 nM | IC50 (KRas WT): 32 nM | IC50 (KRas G12S): 122 nM | IC50 [2]: 955 nM | IC50 [3]: 2110 nM

Cc1ccccc1OC(=O)C1CCN(c2nc(OC[C@@]34CCCN3C[C@H](F)C4)nc3c(F)c(-c4ccc(F)c5sc(N)c(C#N)c45)c(Cl)cc23)CC1 [Example 243, o-tolyl 1-(7-(2-amino-3-cyano-7-fluorobenzo[b]thiophen-4-yl)-6-chloro-8-fluoro-2-(((2R,7aS)-2-fluorotetrahydro-1H-pyrrolizin-7a(5H)-yl)methoxy)quinazolin-4-yl)piperidine-4-carboxylate]
IC50 [1]: 215 nM | IC50 (KRas G12C): 19 nM | IC50 (KRas WT): 330 nM | IC50 (KRas G12S): 127 nM | IC50 [2]: 736 nM | IC50 [3]: 26 nM

CCc1c(F)ccc2cc(O)cc(-c3ncc4c(N(C)CCN(C)C(=O)n5nccn5)nc(OC[C@@]56CCCN5C[C@H](F)C6)nc4c3F)c12 (single isomer, unassigned) [Example 207]
IC50 [1]: 6650 nM | IC50 (KRas G12C): 22 nM | IC50 (KRas WT): 238 nM | IC50 (KRas G12S): 66 nM | IC50 [2]: 1390 nM | IC50 [3]: 34 nM

COCC(C)OC(=O)C1CCN(c2nc(OC[C@@]34CCCN3C[C@H](F)C4)nc3c(F)c(-c4ccc(F)c5sc(N)c(C#N)c45)c(Cl)cc23)CC1 (stereo partly drawn) [Example 240, 1-methoxypropan-2-yl 1-(7-(2-amino-3-cyano-7-fluorobenzo[b]thiophen-4-yl)-6-chloro-8-fluoro-2-(((2R,7aS)-2-fluorotetrahydro-1H-pyrrolizin-7a(5H)-yl)methoxy)quinazolin-4-yl)piperidine-4-carboxylate]
IC50 [1]: 775 nM | IC50 (KRas G12C): 66 nM | IC50 (KRas WT): 16 nM | IC50 (KRas G12S): 62 nM | IC50 [2]: 44 nM | IC50 [3]: 658 nM

Cc1ccn(C(=O)CCNc2cc(O[C@@H](C)[C@@H]3CCCN3C)nc(-c3noc([C@@]4(C)CCCc5sc(N)c(C#N)c54)n3)n2)n1 [Example 318, (S)-2-amino-4-methyl-4-(3-(4-((3-(3-methyl-1H-pyrazol-1-yl)-3-oxopropyl)amino)-6-((S)-1-((S)-1-methylpyrrolidin-2-yl)ethoxy)pyrimidin-2-yl)-1,2,4-oxadiazol-5-yl)-4,5,6,7-tetrahydrobenzo[b]thiophene-3-carbonitrile]
IC50 [1]: 17 nM | IC50 (KRas G12C): 2 nM | IC50 (KRas WT): 12 nM | IC50 (KRas G12S): 3 nM | IC50 [2]: 801 nM | IC50 [3]: 908 nM

N#Cc1c(N)sc2c(F)ccc(-c3c(Cl)cc4c(N5CCC(C(=O)Oc6cccc(Cl)c6)CC5)nc(OC[C@@]56CCCN5C[C@H](F)C6)nc4c3F)c12 [Example 297, 3-chlorophenyl 1-(7-(2-amino-3-cyano-7-fluorobenzo[b]thiophen-4-yl)-6-chloro-8-fluoro-2-(((2R,7aS)-2-fluorotetrahydro-1H-pyrrolizin-7a(5H)-yl)methoxy)quinazolin-4-yl)piperidine-4-carboxylate]
IC50 [1]: 101 nM | IC50 (KRas G12C): 23 nM | IC50 (KRas WT): 99 nM | IC50 (KRas G12S): 45 nM | IC50 [2]: 299 nM | IC50 [3]: 32 nM

Cc1ccn(C(=O)CCCNc2nc(OC[C@@]34CCCN3C[C@H](F)C4)nc3c(F)c(-c4ccc(F)c5sc(N)c(C#N)c45)c(Cl)cc23)n1 [Example 142, 2-amino-4-(6-chloro-8-fluoro-2-(((2R,7aS)-2-fluorotetrahydro-1H-pyrrolizin-7a(5H)-yl)methoxy)-4-((4-(3-methyl-1H-pyrazol-1-yl)-4-oxobutyl)amino)quinazolin-7-yl)-7-fluorobenzo[b]thiophene-3-carbonitrile]
IC50 [1]: 7 nM | IC50 (KRas G12C): < 2 nM | IC50 (KRas WT): 10 nM | IC50 (KRas G12S): < 2 nM | IC50 [2]: 531 nM | IC50 [3]: 8 nM

CCc1c(F)ccc2cc(O)cc(-c3ncc4c(N5CC(CC(=O)n6ccc(C)n6)C5)nc(OC[C@@]56CCCN5C[C@H](F)C6)nc4c3F)c12 [Example 84, 2-(1-(7-(8-ethyl-7-fluoro-3-hydroxynaphthalen-1-yl)-8-fluoro-2-(((2R,7aS)-2-fluorotetrahydro-1H-pyrrolizin-7a(5H)-yl)methoxy)pyrido[4,3-d]pyrimidin-4-yl)azetidin-3-yl)-1-(3-methyl-1H-pyrazol-1-yl) ethan-1-one]
IC50 [1]: 55 nM | IC50 (KRas G12C): 53 nM | IC50 (KRas WT): 154 nM | IC50 (KRas G12S): 7 nM | IC50 [2]: 6390 nM | IC50 [3]: 7600 nM

CN(CCCC(=O)Oc1ccc(F)cc1F)c1nc(OC[C@@]23CCCN2C[C@H](F)C3)nc2c(F)c(-c3ccc(F)c4sc(N)c(C#N)c34)c(Cl)cc12 [Example 271, 2,4-difluorophenyl 4-((7-(2-amino-3-cyano-7-fluorobenzo[b]thiophen-4-yl)-6-chloro-8-fluoro-2-(((2R,7aS)-2-fluorotetrahydro-1H-pyrrolizin-7a(5H)-yl)methoxy)quinazolin-4-yl)(methyl)amino)butanoate]
IC50 [1]: 139 nM | IC50 (KRas G12C): 4 nM | IC50 (KRas WT): 81 nM | IC50 (KRas G12S): 16 nM | IC50 [2]: 177 nM | IC50 [3]: 31 nM

CCc1c(F)ccc2cc(O)cc(N3CCc4c(nc(OC[C@@]56CCCN5C[C@H](F)C6)nc4N4CCC(C(=O)n5ccc(C)n5)CC4)C3)c12 [Example 146, (1-(7-(8-ethyl-7-fluoro-3-hydroxynaphthalen-1-yl)-2-(((2R,7aS)-2-fluorotetrahydro-1H-pyrrolizin-7a(5H)-yl)methoxy)-5,6,7,8-tetrahydropyrido[3,4-d]pyrimidin-4-yl)piperidin-4-yl)(3-methyl-1H-pyrazol-1-yl)methanone]
IC50 [1]: > 10000 nM | IC50 (KRas G12C): 676 nM | IC50 (KRas WT): 412 nM | IC50 (KRas G12S): 477 nM | IC50 [2]: 2530 nM | IC50 [3]: 3830 nM

N#Cc1c(N)sc2c(F)ccc(-c3c(Cl)cc4c(N5CCC(C(=O)Oc6cccc(F)c6)CC5)nc(OC[C@@]56CCCN5C[C@H](F)C6)nc4c3F)c12 [Example 302, 3-fluorophenyl 1-(7-(2-amino-3-cyano-7-fluorobenzo[b]thiophen-4-yl)-6-chloro-8-fluoro-2-(((2R,7aS)-2-fluorotetrahydro-1H-pyrrolizin-7a(5H)-yl)methoxy)quinazolin-4-yl)piperidine-4-carboxylate]
IC50 [1]: 79 nM | IC50 (KRas G12C): 12 nM | IC50 (KRas WT): 164 nM | IC50 (KRas G12S): 25 nM | IC50 [2]: 286 nM | IC50 [3]: 18 nM
